Data reported in patent US8431593B2, “Heteroaryl amide derivatives” (H. Lundbeck A/S, priority 2006, dated 2013).
Read-outs that look alike come from different tables or passages of the source. One block for each molecule: values may come before it.

Molecular target: T1, P2X7 receptor (Homo sapiens, UniProt Q99572)
T1 construct: host or cells: SH-SY5Y
T1 sequence (Q99572 1-595): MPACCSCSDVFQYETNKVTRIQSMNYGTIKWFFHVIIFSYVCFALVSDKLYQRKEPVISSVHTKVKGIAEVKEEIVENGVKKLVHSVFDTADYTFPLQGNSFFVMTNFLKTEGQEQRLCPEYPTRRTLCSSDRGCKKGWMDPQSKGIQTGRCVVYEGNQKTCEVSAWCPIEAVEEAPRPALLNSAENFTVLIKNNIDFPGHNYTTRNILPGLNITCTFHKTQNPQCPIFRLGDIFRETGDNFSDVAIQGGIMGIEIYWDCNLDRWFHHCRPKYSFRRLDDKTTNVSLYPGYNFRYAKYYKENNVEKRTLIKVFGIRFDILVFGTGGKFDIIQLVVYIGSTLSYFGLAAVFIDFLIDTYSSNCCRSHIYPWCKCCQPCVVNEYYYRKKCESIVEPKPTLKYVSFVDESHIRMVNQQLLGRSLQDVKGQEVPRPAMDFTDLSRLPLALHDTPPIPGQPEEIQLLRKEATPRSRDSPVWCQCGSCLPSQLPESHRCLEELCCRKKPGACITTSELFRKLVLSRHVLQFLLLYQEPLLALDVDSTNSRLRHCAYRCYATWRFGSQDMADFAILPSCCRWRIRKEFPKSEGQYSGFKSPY
Experiment: P2X7 calcium mobilization assay, high throughput, antagonist activity (Example 4A)
Type: cell-based
Conditions: read-out: IC50
In short: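 100,000 cells/well, plated day -1. Dye 1 h → rinse → compound 1 h, RT → FLIPR^TETRA Ca2+ mobilization. Max RFU minus mean negative control (no agonist); mean agonist-well max as positive control.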

[1] = 50% decrease in the fluorescence response of cells exposed to 80 μM 2′(3′)-O-(4-benzoyl-benzoyl)adenosine 5′-triphosphate, Example 4A
[2] = 50% decrease in the fluorescence response of cells exposed to 80 μM of 2′(3′)-O-(4-benzoyl-benzoyl)adenosine 5′-triphosphate, Example 4A
[3] = 50% decrease in the fluorescence response of cells exposed to 80 μM of 2′(3′)-O-(4-benzoyl-benzoyl)adenosine 5′-triphosphate, determined as in Example 4A
[4] = SH-SY5Y cells, 50% decrease in fluorescence response to 80 μM BzATP
[5] = fluorescence response of cells exposed to 80 μM 2′(3′)-O-(4-benzoyl-benzoyl)adenosine 5′-triphosphate, Example 4A

Compound: O=C(CC12CC3CC(CC(C3)C1)C2)Nc1cccc2nc(C(=O)NC3(CO)CCCC3)cn12 [Compound 441, 5-[(adamantan-1-ylacetyl)amino]-N-[1-(hydroxymethyl)cyclopentyl]imidazo[1,2-a]pyridine-2-carboxamide]
IC50 [1]: < 2000 nM

Compound: Nc1ccn(Cc2cn3c(C(=O)NCC45CC6CC(CC(C6)C4)C5)cccc3n2)n1 [Compound 208, N-(adamantan-1-ylmethyl)-2-[(3-amino-1H-pyrazol-1-yl)methyl]imidazo[1,2-a]pyridine-5-carboxamide]
IC50 [4]: < 2000 nM

Compound: CC(O)CNC(=O)Cc1cn2c(C(=O)NCC34CC5CC(CC(C5)C3)C4)cccc2n1 (stereo not drawn) [Compound 33, N-(adamantan-1-ylmethyl)-2-{2-[(2-hydroxypropyl)amino]-2-oxoethyl}imidazo[1,2-a]pyridine-5-carboxamide]
IC50 [4]: < 2000 nM

Compound: NC1CCN(CCc2cn3c(C(=O)NCC45CC6CC(CC(C6)C4)C5)cccc3n2)CC1 [Compound 117, 2-[2-(4-amino-piperidin-1-yl)-ethyl]-imidazo[1,2-a]pyridine-5-carboxylic acid (adamantan-1-ylmethyl)-amide]
IC50 [4]: < 2000 nM

Compound: COC(=O)CN(C)C(=O)c1cn2c(C(=O)NC[C@@H]3CC[C@H]4C[C@@H]3C4(C)C)cccc2n1 [Compound 481, methyl N-{[5-({[(1S,2R,5S)-6,6-dimethylbicyclo[3.1.1]hept-2-yl]methyl}carbamoyl)imidazo[1,2-a]pyridin-2-yl]carbonyl}-N-methylglycinate]
IC50 [1]: < 2000 nM

Compound: O=C(CC12CC3CC(CC(C3)C1)C2)Nc1cccc2nc(C(=O)N3CCC(O)CC3)cn12 [Compound 426, 2-adamantan-1-yl-N-{2-[(4-hydroxypiperidin-1-yl)carbonyl]imidazo [1,2-a]pyridin-5-yl}acetamide]
IC50 [1]: < 2000 nM

Compound: CN(C)C1CCCN(C(=O)Cc2cn3c(C(=O)NCC45CC6CC(CC(C6)C4)C5)cccc3n2)C1 (stereo not drawn) [Compound 740, N-(adamantan-1-ylmethyl)-2-{2-[3-(dimethylamino)piperidin-1-yl]-2-oxoethyl}imidazo[1,2-a]pyridine-5-carboxamide]
IC50 [2]: < 2000 nM

Compound: CC(C)(C)CNC(=O)Cc1cn2c(C(=O)NCC34CC5CC(CC(C5)C3)C4)cccc2n1 [Compound 154, N-(adamantan-1-ylmethyl)-2-{2-[(2,2-dimethylpropyl)amino]-2-oxoethyl}imidazo[1,2-a]pyridine-5-carboxamide]
IC50 [4]: < 2000 nM

Compound: O=C(NCC12CC3CC(CC(C3)C1)C2)c1cccc2nc(CN3CC[C@H](F)C3)cn12 [Compound 282, N-(adamantan-1-ylmethyl)-2-[(3-fluoropyrrolidin-1-yl)methyl]imidazo[1,2-a]pyridine-5-carboxamide]
IC50 [5]: < 2000 nM

Compound: O=C(Cc1cn2c(C(=O)NCC34CC5CC(CC(C5)C3)C4)cccc2n1)NCCO [Compound 26, N-(adamantan-1-ylmethyl)-2-{2-[(2-hydroxyethyl)amino]-2-oxoethyl}imidazo[1,2-a]pyridine-5-carboxamide]
IC50 [4]: < 2000 nM

Compound: CC(C)C(=O)NC1CCN(C(=O)c2cn3c(NC(=O)CC45CC6CC(CC(C6)C4)C5)cccc3n2)CC1 [Compound 402, N-[1-({5-[(adamantan-1-ylacetyl)amino]imidazo[1,2-a]pyridin-2-yl}carbonyl)piperidin-4-yl]-2-methylpropanamide]
IC50 [5]: < 2000 nM

Compound: NCCS(=O)(=O)Cc1cn2c(C(=O)NCC34CC5CC(CC(C5)C3)C4)cccc2n1 [Compound 283, N-(adamantan-1-ylmethyl)-2-{[(2-aminoethyl)sulfonyl]methyl}imidazo [1,2-a]pyridine-5-carboxamide]
IC50 [5]: < 2000 nM

Now from value to molecule:

IC50 [1]: < 2000 nM
Compound: CC1(C)[C@@H]2CC[C@@H](CNC(=O)c3cccc4nc(CC(=O)N5CC[C@@H](N)C5)cn34)[C@H]1C2 [Compound 588, 2-{2-[(3R)-3-aminopyrrolidin-1-yl]-2-oxoethyl}-N-{[(1R,2R,5R)-6,6-dimethylbicyclo[3.1.1]hept-2-yl]methyl}imidazo [1,2-a]pyridine-5-carboxamide]

IC50 [2]: < 2000 nM
Compound: CC(C)N[C@@H]1CCCN(C(=O)c2cn3c(C(=O)NCC45CC6CC(CC(C6)C4)C5)cccc3n2)C1 [Compound 745, N-(adamantan-1-ylmethyl)-2-{[(3R)-3-(isopropylamino)piperidin-1-yl]carbonyl}imidazo[1,2-a]pyridine-5-carboxamide]

IC50 [2]: < 2000 nM
Compound: CCOC(=O)C(Cc1ccccn1)c1cn2c(C(=O)NCC34CC5CC(CC(C5)C3)C4)cccc2n1 (stereo not drawn) [Compound 736, ethyl 2-{5-[(adamantan-1-ylmethyl)carbamoyl]imidazo[1,2-a]pyridin-2-yl}-3-pyridin-2-ylpropanoate]

IC50 [1]: < 2000 nM
Compound: CC1(C)[C@@H]2CC[C@@H](CNC(=O)c3cccc4nc(CC(=O)N5CCOC(CN)C5)cn34)[C@H]1C2 (stereo partly drawn) [Compound 594, 2-{2-[2-(aminomethyl)morpholin-4-yl]-2-oxoethyl}-N-{[(1R,2R,5R)-6,6-dimethylbicyclo [3.1.1]hept-2-yl]methyl}imidazo[1,2-a]pyridine-5-carboxamide]

IC50 [3]: < 2000 nM
Compound: O=C(Cc1cn2c(C(=O)NCC34CC5CC(CC(C5)C3)C4)cccc2n1)N[C@@H]1CCCNC1 [Compound 838, N-(adamantan-1-ylmethyl)-2-{2-oxo-2-[(3R)-piperidin-3-ylamino]ethyl} imidazo[1,2-a] pyridine-5-carboxamide]

IC50 [3]: < 2000 nM
Compound: O=C(NCC12CC3CC(CC(C3)C1)C2)c1cccc2nc(CC(Cc3ccccc3)C(=O)O)cn12 (stereo not drawn) [Compound 1003, 3-{5-[(adamantan-1-ylmethyl)carbamoyl]imidazo[1,2-a]pyridin-2-yl}-2-benzylpropanoic acid]

IC50 [3]: < 2000 nM
Compound: O=C(NCC1(c2ccc(Cl)cc2)CCCCC1)c1cccc2nc(CC(=O)N3CCn4cncc4C3)cn12 [Compound 881, N-{[1-(4-chlorophenyl)cyclohexyl]methyl}-2-[2-(5,6-dihydroimidazo[1,5-a]pyrazin-7(8H)-yl)-2-oxoethyl]imidazo[1,2-a]pyridine-5-carboxamide]

IC50 (P2X7 calcium mobilization, Example 4A, 50% decrease in the fluorescence response of cells exposed to 80 μM of (2′(3′)-O-(4-benzoyl-benzoyl)adenosine 5′-triphosephate)): < 2000 nM
Compound: O=C(NCC(c1ccc(C(F)(F)F)nc1)N1CCCCC1)c1cccc2ncc(Cl)n12 (stereo not drawn) [Compound 1058, 3-chloro-N-{2-piperidin-1-yl-2-[6-(trifluoromethyl)pyridin-3-yl]ethyl}imidazo[1,2-a]pyridine-5-carboxamide]

IC50 [2]: < 2000 nM
Compound: CC(C)N(C(=O)c1cn2c(C(=O)NCC34CC5CC(CC(C5)C3)C4)cccc2n1)C1CCN(C)CC1 [Compound 680, 5-N-(adamantan-1-ylmethyl)-2-N-isopropyl-2-N-(1-methylpiperidin-4-yl)imidazo[1,2-a]pyridine-2,5-dicarboxamide]

IC50 [2]: < 2000 nM
Compound: O=C(NCC12CC3CC(CC(C3)C1)C2)c1cccc2nc(C(Cc3cccnc3)C(=O)O)cn12 (stereo not drawn) [Compound 730, 2-{5-[(adamantan-1-ylmethyl)carbamoyl]imidazo[1,2-a]pyridin-2-yl}-3-pyridin-3-ylpropanoic acid]

IC50 [3]: < 2000 nM
Compound: O=C(NCC12CC3CC(CC(C3)C1)C2)c1cccc2nc(C(=O)n3ccc(N4CCNC4=O)n3)cn12 [Compound 826, N-(adamantan-1-ylmethyl)-2-{[3-(2-oxoimidazolidin-1-yl)-1H-pyrazol-1-yl]carbonyl}imidazo [1,2-a]pyridine-5-carboxamide]

IC50 [3]: < 2000 nM
Compound: O=C(Cc1cn2c(C(=O)NCCc3ccccc3)cccc2n1)NCC1(c2ccc(Cl)cc2)CCCCC1 [Compound 979, 2-[2-({[1-(4-chlorophenyl)cyclohexyl]methyl}amino)-2-oxoethyl]-N-(2-phenylethyl) imidazo[1,2-a]pyridine-5-carboxamide]

IC50 [2]: < 2000 nM
Compound: CC(C)CC(CNC(=O)c1cccc2nc(CN3CC[C@@H](NC(=O)OC(C)(C)C)C3)cn12)c1ccc(Cl)cc1 (stereo partly drawn) [Compound 766, tert-butyl{1-[(5-{[2-(4-chlorophenyl)-4-methylpentyl]carbamoyl}imidazo[1,2-a]pyridin-2-yl)methyl]pyrrolidin-3-yl}carbamate]

IC50 [3]: < 2000 nM
Compound: CC(C)CC(CNC(=O)c1cccc2nc(C(=O)n3ccc(N)n3)cn12)c1ccc(Cl)cc1 (stereo not drawn) [Compound 854, 2-[(3-amino-1H-pyrazol-1-yl)carbonyl]-N-[2-(4-chlorophenyl)-4-methylpentyl] imidazo [1,2-a]pyridine-5-carboxamide]

IC50 [1]: < 2000 nM
Compound: CC1(C)C2CC[C@H](CNC(=O)c3cccc4nc(CC(=O)N5CC[C@@H](N)C5)cn34)C1C2 (relative stereo) [Compound 549, rel-2-{2-[(3R)-3-aminopyrrolidin-1-yl]-2-oxoethyl}-N-{[(2S)-6,6-dimethylbicyclo[3.1.1]hept-2-yl]methyl}imidazo[1,2-a]pyridine-5-carboxamide]
